Source: US20090123488A1, “Compositions and methods for the treatment and prophylaxis of Alzheimer's disease” (priority 2006, published 2009)

Columns and labels:
[1] = tested on: amyloid-β; conditions: mice, alum adjuvant, five boosts (Agadjanyan et al 2005); cited from earlier work
[2] = tested on: Aβ40; conditions: immunized mice (Agadjanyan et al 2005); cited from earlier work
[3] = tested on: synthetic Aβ40; assay: Effect of booster doses: mouse serums titered on synthetic Aβ40; format: in vivo; conditions: three mice
Protocol: After immunizations with the immunogens of Example 1, serums were assayed to determine anti-Aβ peptide titers by conventional ELISA methods. […] After thorough washing with 0.1% triton X 100 buffer, blocking with 1% bovine serum albumin (BSA) and rewashing, serum dilutions were applied and incubated at 22° C. for 1 hour. After incubation, the plates were thoroughly washed with triton-X 100 buffer again and 1/10,000 goat anti-mouse IgG-horseradish peroxidase (HRP) conjugate (or the appropriate reagent for rat or rabbit) was applied. The plates were then incubated for 1 hour at 22° C. then washed thoroughly and developed with ABTS for 45 minutes at room temperature on a shaker table. Absorbance was measured at 405 nm. Control wells containing 1/60000 normal mouse serum were measured; and the reciprocal of the […] dilution of test serums with an OD greater than the mean+8 SDs of controls was taken as the titer.
In an experiment to determine the effect of booster dosages, three mice were immunized with experimental immunogen, Pam2C-SSQYIKANSKFIGITELDAEFRHDSGYEVHHQ-amide (SEQ ID NO: 13) in a protocol of a 1 mg intraperitoneal (IP) priming dose at Day 0, followed by a 1 mg IP booster at Week 3, and a 1 mg IP second booster at Week 6. Mice were bled at weeks 5 and 8. The serums are titered on synthetic Aβ40. […]

Sequence of Aβ40 (P05067 672-711): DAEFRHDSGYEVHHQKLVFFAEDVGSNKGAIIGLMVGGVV

Row | Substance | maximal titer [1] | T cell response to Aβ40 [2] | GMT at 5 weeks ([3]; 1 mg IP Day 0, boosters Week 3 and Week 6, bled week 5) | GMT at 8 weeks ([3]; 1 mg IP Day 0, boosters Week 3 and Week 6, bled week 8)
1 | Aβ33-MAP: Aβ33 synthesized as a multiple antigenic peptide (Agadjanyan et al 2005) | 64,000 | demonstrable T cell response | – | –
2 | Pam2C-SSQYIKANSKFIGITELDAEFRHDSGYEVHHQ-amide [Pam2-QYIK-AB1-15] | – | – | 3 million | 8 million
